{
  "source": "patent US20110178015A1",
  "about": "“METHODS OF TREATMENT USING BIASED LIGANDS FOR RECEPTORS SUCH AS THE PTH RECEPTOR” (priority 2007, published 2011)",
  "key": {"endogenous PTH1R [1]": {"biological_target": "T1, endogenous PTH1R (Mus musculus, UniProt P41593)", "T1 construct": "stimulation of endogenous PTH1R in primary murine osteoblasts (POB); endogenous in cells; host or cells: primary osteoblasts (POB) from WT and β-arrestin 2−/− C57BL/6 mice", "T1 sequence (P41593 27-591)": "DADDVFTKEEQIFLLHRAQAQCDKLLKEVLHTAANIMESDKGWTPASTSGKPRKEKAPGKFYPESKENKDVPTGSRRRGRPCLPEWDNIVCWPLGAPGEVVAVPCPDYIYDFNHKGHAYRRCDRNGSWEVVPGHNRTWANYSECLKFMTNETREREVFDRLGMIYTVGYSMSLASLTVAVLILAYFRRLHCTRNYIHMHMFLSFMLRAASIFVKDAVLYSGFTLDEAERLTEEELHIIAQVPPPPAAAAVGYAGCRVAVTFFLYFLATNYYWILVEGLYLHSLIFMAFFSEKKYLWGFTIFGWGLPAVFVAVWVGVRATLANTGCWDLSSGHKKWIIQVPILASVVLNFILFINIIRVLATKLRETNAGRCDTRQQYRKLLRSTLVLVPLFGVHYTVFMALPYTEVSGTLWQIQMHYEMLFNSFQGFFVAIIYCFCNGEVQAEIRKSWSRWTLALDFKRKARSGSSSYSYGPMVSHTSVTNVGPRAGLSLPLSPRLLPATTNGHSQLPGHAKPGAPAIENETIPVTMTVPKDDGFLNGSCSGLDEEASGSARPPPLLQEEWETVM", "experiment": "cAMP accumulation in primary osteoblasts (POB)", "type": "cell-based, mice", "conditions": "100 nM PTH(1-34) or 1 μM PTH-βarr, 5 min", "protocol": "FIG. 1. […] Cells were treated with 100 nM PTH(1-34) (PTH) or 1 μM PTH-βarr. […] Data correspond to the mean±SEM from four independent experiments. (***, P<0.001 compared with the nonstimulated WT POB; †††, P<0.001; ††, P<0.01 compared with the non-stimulated β-arrestin 2−/− POBs).\nThe increased basal cAMP in the β-arrestin cells is likely due to the loss of β-arrestin mediated desensitization of PTH1R and/or other Gs coupled 7TMRs.\nThere was no significant difference in cAMP generated between WT and β-arrestin 2−/−POB at 5 min."}, "[2]": {"system": "WT and β-arrestin 2−/− mice", "experiment": "Serum osteocalcin, marker of bone formation", "type": "in vivo", "conditions": "4 weeks of treatment", "protocol": "(§1) FIG. 5. PTH-βarr increases serum osteocalcin and has no effect on urine Deoxypyridinoline (DPD) excretion. (a) Serum osteocalcin, a biochemical marker of bone formation was measured in WT and β-arrestin 2−/− mice after 4 weeks of treatment with vehicle, PTH (1-34) (PTH) or PTH-βarr. […] There was no increase in serum osteocalcin in the arrestin 2−/− mice treated with PTH-βarr compared to placebo. […] (b) 24 hour urine DPD, a marker of bone degradation and bone resorption, was also measured in WT and β-arrestin 2−/− mice after 4 weeks of treatment with vehicle, PTH or PTH-βarr. […] Data represent the mean±SEM of at least 7 independent mouse measurements. (***, P<0.001; *, P<0.05; compared with vehicle treated WT mice; †††, P<0.001; ††, P<0.01 compared with vehicle treated β-arrestin 2−/− mice).\nTo delineate the cellular mechanisms contributing to the metabolic effects of PTH(1-34) and PTH-βarr administration in WT and β-arrestin 2−/− mice, serum and urine markers of bone turnover were assessed."}, "[3]": {"system": "WT and β-arrestin 2−/− mice", "experiment": "Quantitative histomorphometry of lumbar spine sections", "type": "in vivo", "conditions": "for osteoblast surface vs vehicle / osteoclast surface (osteoclast recruitment) / osteoid surface vs vehicle: WT mice, 8 wks, lumbar spine sections", "from_the_text": "Dynamic histomorphometric data were consistent with the qCT of trabecular bone morphology. […] As expected there was an increase in osteoclast surface in the PTH (1-34) treated animals."}, "PTH1 receptor": {"system": "PTH1 receptor", "conditions": "cited from earlier work"}, "endogenous PTH1R [4]": {"biological_target": "T1, endogenous PTH1R", "experiment": "Gq/11 PI hydrolysis in POB cultures", "type": "cell-based, mice", "conditions": "data not shown"}, "[5]": {"system": "WT and β-arrestin 2−/− mice", "experiment": "24 hour urine deoxypyridinoline (DPD), marker of bone resorption", "type": "in vivo", "conditions": "4 weeks of treatment", "protocol": "as §1\n265. 24 hour urine deoxypyridinoline (DPD), a marker of bone degradation and bone resorption, was also measured. […] The increase in urine DPD excretion in the PTH(1-34) treated β-arrestin 2−/− mice compared to WT further supports the hypothesis that osteoblast-osteoclast coupling is meditated primarily through G protein dependent mechanisms that are disinhibited in the absence of β-arrestin 2."}, "[6]": {"conditions": "Gardella 1996, Sneddon 2004, Bisello 2002"}},
  "note": "Entries after “also recorded” stand apart in the source; their conditions may differ.",
  "data": [
    {"substance": "(D-Trp12, Tyr34)-PTH(7-34) [PTH-βarr]", "values": [
      {"measurement": "cAMP accumulation", "setting": "endogenous PTH1R [1]; WT POB", "value": "unable to stimulate cAMP; also recorded: did not increase cAMP"},
      {"measurement": "cAMP accumulation", "setting": "endogenous PTH1R [1]; β-arrestin 2−/− POB", "value": "decreases basal cAMP levels; also recorded: significantly decreased"},
      {"measurement": "serum osteocalcin vs vehicle", "setting": "[2]; WT mice", "value": "significantly increased"},
      {"measurement": "serum osteocalcin vs vehicle", "setting": "[2]; β-arrestin 2−/− mice", "value": "no increase; also recorded: no significant change"},
      {"measurement": "osteoblast surface vs vehicle", "setting": "[3]", "value": "increased"},
      {"measurement": "osteoclast surface (osteoclast recruitment)", "setting": "[3]", "value": "no effect"},
      {"measurement": "osteoid surface vs vehicle", "setting": "[3]", "value": "increased"},
      {"measurement": "PTH1 receptor-Gs coupling / cAMP production", "setting": "PTH1 receptor; [6]", "value": "inverse agonist"},
      {"measurement": "arrestin-dependent sequestration / β-arrestin recruitment", "setting": "PTH1 receptor; [6]", "value": "promoting arrestin-dependent sequestration"},
      {"measurement": "β-arrestin-dependent ERK1/2 activation", "setting": "PTH1 receptor; in vitro, Gesty-Palmer 2006", "value": "elicit β-arrestin-dependent ERK1/2 activation"},
      {"measurement": "Gq/11 PI hydrolysis", "setting": "endogenous PTH1R [4]", "value": "did not activate"},
      {"measurement": "24 hour urine DPD vs vehicle", "setting": "[5]; WT mice", "value": "no significant effect"},
      {"measurement": "24 hour urine DPD vs vehicle", "setting": "[5]; β-arrestin 2−/− mice", "value": "no significant effect"}
    ]},
    {"substance": "PTH(1-34) [reference compound]", "values": [
      {"measurement": "cAMP accumulation", "setting": "endogenous PTH1R [1]; WT POB", "value": "robust increases"},
      {"measurement": "cAMP accumulation", "setting": "endogenous PTH1R [1]; WT POB, listed as PTH", "value": "robust increase"},
      {"measurement": "cAMP accumulation", "setting": "endogenous PTH1R [1]; β-arrestin 2−/− POB", "value": "robust increases"},
      {"measurement": "cAMP accumulation", "setting": "endogenous PTH1R [1]; β-arrestin 2−/− POB, listed as PTH", "value": "robust increase"},
      {"measurement": "serum osteocalcin vs vehicle", "setting": "[2]; WT mice", "value": "significantly increased"},
      {"measurement": "serum osteocalcin vs vehicle", "setting": "[2]; WT mice, listed as PTH", "value": "significantly increase"},
      {"measurement": "serum osteocalcin vs vehicle", "setting": "[2]; β-arrestin 2−/− mice", "value": "increased"},
      {"measurement": "osteoblast surface vs vehicle", "setting": "[3]", "value": "increased"},
      {"measurement": "osteoclast surface (osteoclast recruitment)", "setting": "[3]", "value": "increase"},
      {"measurement": "osteoid surface vs vehicle", "setting": "[3]", "value": "increased"},
      {"measurement": "osteoclast formation", "setting": "[3]; in the absence of β-arrestin 2", "value": "accelerates"},
      {"measurement": "Gq/11 PI hydrolysis", "setting": "endogenous PTH1R [4]", "value": "did not activate"},
      {"measurement": "24 hour urine DPD vs vehicle", "setting": "[5]; WT mice", "value": "significantly increased"},
      {"measurement": "24 hour urine DPD vs vehicle", "setting": "[5]; β-arrestin 2−/− mice", "value": "significantly increased"},
      {"measurement": "24 hour urine DPD vs vehicle", "setting": "[5]; β-arrestin 2−/− mice, listed as PTH", "value": "increase"}
    ]}
  ]
}
